Source: patent US20190133124A1, “BACILLUS AND LIPOCHITOOLIGOSACCHARIDE FOR IMPROVING PLANT GROWTH” (NOVOZYMES BIOAG A/S, priority 2016, published 2019)

What was measured:
[1] = tested on: corn seeds (Monsanto, DKC 63-33); assay: Metro-Mix 830 system (growth chamber): corn seedling dry weight after seed treatment with Bacillus amyloliquefaciens and Myc factor; format: in vivo
Description: A study was performed to determine the effect of Bacillus amyloliquefaciens, LCOs, or combinations of Bacillus amyloliquefaciens and LCOs on corn growth. Corn seeds were treated with Bacillus amyloliquefaciens strain SB3281 bacteria alone, or in combination with an LCO IV (C16:0, S) Myc factor (FIG. 1B). In this study, corn seeds treated with Bacillus amyloliquefaciens alone or Myc factor alone were compared to non-treated control corn seeds. In addition, corn seeds treated with Bacillus amyloliquefaciens and Myc factor were included in the study. Seeds treated as above were tested in a system designed to test various parameters of early emergence of treated seeds. In this system, the treated seeds were planted in Metro-Mix® 830 (Sun Gro Horticulture; […], Mass., U.S.) and grown in a growth chamber (25° C., 60% relative humidity, 18/6 hour light/dark cycle). Germination trays (12 rows of 6 wells) were filled with moist Metro-Mix® 830. Treated seeds were sown into the wells (30 wells per seed treatment) and grown in the growth chamber for 8 days. The seedlings were harvested, and dry weights of roots/shoots from the seedlings were obtained. To measure the dry weight, the soil was removed from the roots, and dry weights of the roots/shoots and biomass per seedling were determined as described in Example 1. To obtain the Bacillus amyloliquefaciens bacterium for the study, strain SB3281 (ATCC PTA-7542) was grown as described in Example 1. Samples of the bacteria were taken from the culture at 24 hrs (T1). The number of bacteria in the cultures at the various time points was determined by plating serial dilutions from the cultures on SMA plates and the colonies that formed were counted and multiplied by the dilution factor. The number of spores in the cultures were determined by heating aliquots from the cultures at 80° C. in a water bath for 10 minutes to kill vegetative cells. Serial dilutions were plated as above and colony counts multiplied by the dilution factor. Corn seeds were treated by applying a total of 500 μl of treatment substances (e.g., bacteria, LCO, etc.) to 50 g of corn seeds (Monsanto, DKC 63-33). The seeds were allowed to dry at room temperature in bags for 3-4 hours before used in the Metro-Mix® experiments. Control seeds were treated with 500 μl of water. Another group of seeds was treated with 500 μl of a Bacillus amyloliquefaciens culture. A third group of seeds was treated with 500 μl of a 10^-9 M solution of Myc factor. A fourth group of seeds was treated with 250 μl of the Bacillus amyloliquefaciens culture and 250 μl of a 10^-9 M solution of Myc factor.

[2] = tested on: corn seeds (Monsanto, DKC 63-33); assay: Moist chamber system: corn seedling dry weight after seed treatment with Bacillus amyloliquefaciens and Nod factor; format: in vivo
Description: A study was performed to determine the effect of seed treatment of Bacillus amyloliquefaciens, a Nod factor, or a combination of Bacillus amyloliquefaciens and a Nod factor on corn growth. Corn seeds were treated with Bacillus amyloliquefaciens strain SB3281 bacteria alone, an LCO V (C18:1) Nod factor (FIG. 1A) alone, or a combination of the bacterial strain and Nod factor. Seeds treated as above were tested in a system designed to test various parameters of early seed germination. In this system, the seeds were placed on moist germination paper, in petri dishes, in a representative mock moist chamber experiment (for each seed treatment, 3 petri dishes, each with 5 seeds per dish, were used; 10 ml of deionized water was added to the germination paper per dish). The seeds were allowed to grow in the petri dishes at room temperature for approximately 2 weeks. After that time, various parameters of the seedlings were measured. The lengths of roots/shoots were measured in some experiments. In some experiments, the dry weights of the roots/shoots were determined after dissecting roots from shoots, drying the roots/shoots (placed in a coin envelope) in a 70° C. oven for 2 days, and weighing the roots/shoots. The individual biomass per seedling was determined from these measurements in order to find the average biomass per treatment. To obtain the Bacillus amyloliquefaciens bacterium for the study, strain SB3281 (ATCC PTA-7542) was maintained on Standard Methods Agar (“SMA”; Smith River Biologicals; Ferrum, Va., U.S.). Single colonies were selected from SMA and used to inoculate 5 ml of LB medium. Twenty-four hour old LB cultures were used to inoculate a 250 ml flask containing 100 ml of Si medium (per liter contained 9.4 g of yeast extract, 9.4 g of corn syrup solids, 0.5 g of magnesium chloride hexahydrate, 0.2 g of manganese (II) chloride tetrahydrate, 0.2 g of calcium chloride dehydrate, and 0.27 g of sodium hydroxide, pH 7.0). The flask was incubated at 30° C. on a shaker at 165 rpm. Samples of the bacteria were taken from the culture at 7 days (T7). The number of bacteria in the cultures at the various time points was determined by plating serial dilutions from the cultures on SMA plates and the colonies that formed were counted and multiplied by the dilution factor. The number of spores in the cultures were determined by heating aliquots from the cultures at 80° C. in a water bath for 10 minutes to kill vegetative cells. Serial dilutions were plated as above and colony counts multiplied by the dilution factor. Generally, the cultures contained 10^9 bacteria or spores per ml. Corn seeds were treated by applying a total of 500 μl of treatment substances (e.g., bacteria, LCO, etc.) to 50 g of corn seeds (Monsanto, DKC 63-33). The seeds were allowed to dry at room temperature in bags for 3-4 hours before used in the moist chamber experiments. For treatment of seeds with a single substance (e.g., bacteria alone, LCO alone), 500 μl of the bacterial culture was used, or 500 μl of a LCO solution that contained 6 μl of a 10^−8 M LCO stock solution in 100 ml of buffer was used. For treatment of seeds with two substances (e.g., bacteria and an LCO), 250 μl of the bacterial culture and 250 μl of the 6×10^−13 M LCO stock solution was used. Negative control corn seeds were treated with 500 μl of water. […]

Molecule	Average individual seedling dry weight ([1]; Metro-Mix 830, growth chamber 25° C., 8 days, culture grown 1 day (T1), single: 500 μl culture or 500 μl 10^−9 M Myc factor, combination: 250 μl + 250 μl, per 50 g seeds) [g]	Decrease in seedling dry weight versus control ([1]; difference to control 0.1985 g, Metro-Mix 830) [g]	Change in seedling dry weight over control (about %) ([1]; rounded, Metro-Mix 830)	Effect on corn plant growth (in words) ([1]; seedling dry weight, Metro-Mix 830)	Percent increase seedling dry weight over control ([1]; vs water-treated control, Metro-Mix 830, 8 days) [%]	Average individual seedling dry weight ([2]; approximately 2 weeks, T7 culture, single: 500 μl culture or 500 μl 6×10^−13 M LCO, combination: 250 μl + 250 μl, per 50 g seeds) [g]	Increase in seedling dry weight over control ([2]; difference to control 0.2190 g) [g]	Increase in seedling dry weight over control (about %) ([2]; rounded)	Effect on corn plant growth (in words) ([2]; seedling dry weight)	Percent increase seedling dry weight over control ([2]; vs water-treated control) [%]
CCCCCCCCCCCCCCCC(=O)N[C@H]1[C@H](O[C@H]2[C@H](O)[C@@H](NC(C)=O)[C@H](O[C@H]3[C@H](O)[C@@H](NC(C)=O)[C@H](O[C@H]4[C@H](O)[C@@H](NC(C)=O)C(O)O[C@@H]4COS(=O)(=O)O)O[C@@H]3CO)O[C@@H]2CO)O[C@H](CO)[C@@H](O)[C@@H]1O (stereo partly shown) [Myc factor, LCO IV (C16:0, S)]	0.1921	0.0064	about −3.2%	appeared to have a negative effect on corn plant growth	−3.22					
LCO V (C18:1) [Nod factor]						0.2244	0.0054	about 2.5%	increased corn plant growth	2.47
